In the assay the target is human Cereblon WT GST-tagged protein (Homo sapiens (Human), UniProt Q96SW2). In words: CRBN-binding affinity, HTRF (CEREBLON BINDING kit). As for the experimental part:
The CEREBLON BINDING kits (specification: 10,000 tests; product number: Catalog #64BDCRBNPEH; CISBIO company) was used to determine the CRBN binding ability of the compounds to be tested through a HTRF method (homogeneous time-resolved fluorescence). The specific methods are as follows: • 1. […] Then, 2.5 μL of human Cereblon WT GST-tagged protein solution was added to each well. Finally, 5 μL of the thoroughly mixed Thalidomide-Re reagent and GST Eu antibody working solution were added to each of the aforementioned wells. […] The blank control wells were sequentially added with 2.5 μL of diluent #9 (1×) solution, 2.5 μL of PROTAC binding buffer, and 5 μL of thoroughly mixed Thalidomide-Re reagent and GST Eu antibody working solution. • 4.
The corresponding CRBN binding inhibition rate was calculated using the following method: […]
human Cereblon WT GST-tagged protein, sequence (Q96SW2 whole entry): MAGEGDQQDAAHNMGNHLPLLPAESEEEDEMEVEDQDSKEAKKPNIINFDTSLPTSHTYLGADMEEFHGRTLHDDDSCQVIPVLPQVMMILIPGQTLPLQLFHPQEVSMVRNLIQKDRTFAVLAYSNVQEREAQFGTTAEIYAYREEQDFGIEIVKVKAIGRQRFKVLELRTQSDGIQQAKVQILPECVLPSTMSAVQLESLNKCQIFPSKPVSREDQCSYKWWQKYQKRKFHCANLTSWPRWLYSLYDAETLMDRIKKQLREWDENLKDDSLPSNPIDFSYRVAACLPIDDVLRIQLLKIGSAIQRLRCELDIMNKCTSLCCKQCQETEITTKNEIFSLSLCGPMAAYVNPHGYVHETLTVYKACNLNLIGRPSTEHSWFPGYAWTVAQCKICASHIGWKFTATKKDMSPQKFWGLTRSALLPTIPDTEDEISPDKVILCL
In turn, `CC1(C)CCC(CN2C3CCC2CN(C(=O)c2ccc4c(c2)CN(C2CCC(=O)NC2=O)C4=O)C3)=C(c2ccc(Cl)cc2)C1` (stereo not drawn) [GT-05446, 3-(5-(8-((4′-chloro-5,5-dimethyl-3,4,5,6-tetrahydro-[1,1′-biphenyl]-2-yl)methyl)-3,8-diazabicyclo[3.2.1]octane-3-carbonyl)-1-oxoisoindolin-2-yl)piperidine-2,6-dione] displayed a concentration for half-maximal inhibition (IC50) of 1870 nM. In the case of `CC1(C)CCC(CN2CC3CN(C(=O)c4ccc5c(c4)CN(C4CCC(=O)NC4=O)C5=O)CC3C2)=C(c2ccc(F)cc2)C1` (stereo not drawn) [GT-05447, 3-(5-(5-((4′-fluoro-5,5-dimethyl-3,4,5,6-tetrahydro-[1,1′-biphenyl]-2-yl)methyl)octahydropyrrolo[3,4-c]pyrrole-2-carbonyl)-1-oxoisoindolin-2-yl)piperidine-2,6-dione] it was 1150 nM; in that of `O=C1CCC(N2Cc3cc(C(=O)N4CCN(C(=O)C5=C(c6ccc(F)cc6)CCCC5)CC4)ccc3C2=O)C(=O)N1` (stereo not drawn) [GT-05448, 3-(5-(4-(4′-fluoro-3,4,5,6-tetrahydro-[1,1′-biphenyl]-2-carbonyl)piperazine-1-carbonyl)-1-oxoisoindolin-2-yl)piperidine-2,6-dione], 1390 nM; in that of `CC1(C)CCC(CN2CC3CCC(C2)N3C(=O)c2ccc3c(c2)CN(C2CCC(=O)NC2=O)C3=O)=C(c2ccc(F)cc2)C1` (stereo not drawn) [GT-05451, 3-(5-(3-((4′-fluoro-5,5-dimethyl-3,4,5,6-tetrahydro-[1,1′-biphenyl]-2-yl)methyl)-3,8-diazabicyclo[3.2.1]octane-8-carbonyl)-1-oxoisoindolin-2-yl)piperidine-2,6-dione], 1160 nM. In turn, `CC1(C)CCC(CN2CC3CC2CN3C(=O)c2ccc3c(c2)CN(C2CCC(=O)NC2=O)C3=O)=C(c2ccc(F)cc2)C1` (stereo not drawn) [GT-05452, 3-(5-(5-((4′-fluoro-5,5-dimethyl-3,4,5,6-tetrahydro-[1,1′-biphenyl]-2-yl)methyl)-2,5-diazabicyclo[2.2.1]heptane-2-carbonyl)-1-oxoisoindolin-2-yl)piperidine-2,6-dione] yielded an IC50 of 440 nM. The result for `CC1(C)CCC(CN2CCCN(C(=O)c3ccc4c(c3)CN(C3CCC(=O)NC3=O)C4=O)CC2)=C(c2ccc(Cl)cc2)C1` (stereo not drawn) [GT-05453, 3-(5-(4-((4′-chloro-5,5-dimethyl-3,4,5,6-tetrahydro-[1,1′-biphenyl]-2-yl)methyl)-1,4-diazepane-1-carbonyl)-1-oxoisoindolin-2-yl)piperidine-2,6-dione] reads 1240 nM; that for `CC1(C)CCC(CN2C3CC2CN(C(=O)c2ccc4c(c2)CN(C2CCC(=O)NC2=O)C4=O)C3)=C(c2ccc(Cl)cc2)C1` (stereo not drawn) [GT-05457, 3-(5-(6-((4′-chloro-5,5-dimethyl-3,4,5,6-tetrahydro-[1,1′-biphenyl]-2-yl)methyl)-3,6-diazabicyclo[3.1.1]heptane-3-carbonyl)-1-oxoisoindolin-2-yl)piperidine-2,6-dione], 1260 nM; that for `CC1(C)CCC(CN2CC3CCC(C2)N3C(=O)c2ccc3c(c2)CN(C2CCC(=O)NC2=O)C3=O)=C(c2ccc(Cl)cc2)C1` (stereo not drawn) [GT-05458, 3-(5-(3-((4′-chloro-5,5-dimethyl-3,4,5,6-tetrahydro-[1,1′-biphenyl]-2-yl)methyl)-3,8-diazabicyclo[3.2.1]octane-8-carbonyl)-1-oxoisoindolin-2-yl)piperidine-2,6-dione], 1410 nM. The result for `CC1(C)CCC(CN2CC3CCC(C2)N3Cc2ccc3c(c2)C(=O)N(C2CCC(=O)NC2=O)C3)=C(c2ccc(Cl)cc2)C1` (stereo not drawn) [GT-05459, 3-(6-((3-((4′-chloro-5,5-dimethyl-3,4,5,6-tetrahydro-[1,1′-biphenyl]-2-yl)methyl)-3,8-diazabicyclo[3.2.1]octan-8-yl)methyl)-1-oxoisoindolin-2-yl)piperidine-2,6-dione] reads 1120 nM; that for `CC1(C)CCC(CN2CC3CCC2CN3Cc2cc3c(cc2F)C(=O)N(C2CCC(=O)NC2=O)C3)=C(c2ccc(Cl)cc2)C1` (stereo not drawn) [GT-05460, 3-(5-((5-((4′-chloro-5,5-dimethyl-3,4,5,6-tetrahydro-[1,1′-biphenyl]-2-yl)methyl)-2,5-diazabicyclo[2.2.2]octan-2-yl)methyl)-6-fluoro-1-oxoisoindolin-2-yl)piperidine-2,6-dione], 1630 nM. Molecule `CC1(C)CCC(CN2CC3CCC2CN3Cc2cccc3c2CN(C2CCC(=O)NC2=O)C3=O)=C(c2ccc(Cl)cc2)C1` (stereo not drawn) [GT-05461, 3-(4-((5-((4′-chloro-5,5-dimethyl-3,4,5,6-tetrahydro-[1,1′-biphenyl]-2-yl)methyl)-2,5-diazabicyclo[2.2.2]octan-2-yl)methyl)-1-oxoisoindolin-2-yl)piperidine-2,6-dione] showed an IC50 of 1580 nM. Take `CC1(C)CCC(CN2CC3CCC2CN3Cc2cccc3c2C(=O)N(C2CCC(=O)NC2=O)C3)=C(c2ccc(Cl)cc2)C1` (stereo not drawn) [GT-05462, 3-(7-((5-((4′-chloro-5,5-dimethyl-3,4,5,6-tetrahydro-[1,1′-biphenyl]-2-yl)methyl)-2,5-diazabicyclo[2.2.2]octan-2-yl)methyl)-1-oxoisoindolin-2-yl)piperidine-2,6-dione]: the IC50 came to 1900 nM. The molecule `O=C1CCC(N2Cc3ccc(CN4CCN(CC5=C(c6ccc(F)cc6)CCCC5)CC4)cc3C2=O)C(=O)N1` (stereo not drawn) [GT-05465, 3-(6-((4-((4′-fluoro-3,4,5,6-tetrahydro-[1,1′-biphenyl]-2-yl)methyl)piperazin-1-yl)methyl)-1-oxoisoindolin-2-yl)piperidine-2,6-dione] registered an IC50 of 830 nM.

The molecule `O=C1CCC(N2C(=O)c3ccc(CN4CCN(C(=O)C5=C(c6ccc(F)cc6)CCCC5)CC4)cc3C2=O)C(=O)N1` (stereo not drawn) [GT-05468, 2-(2,6-dioxopiperidin-3-yl)-5-((4-(4′-fluoro-3,4,5,6-tetrahydro-[1,1′-biphenyl]-2-carbonyl)piperazin-1-yl)methyl)isoindoline-1,3-dione] had an IC50 of 1500 nM.

As for `O=C1CCC(N2Cc3ccc(CN4CCN(C(=O)C5=C(c6ccc(F)cc6)CCCC5)CC4)cc3C2=O)C(=O)N1` (stereo not drawn) [GT-05470, 3-(6-((4-(4′-fluoro-3,4,5,6-tetrahydro-[1,1′-biphenyl]-2-carbonyl)piperazin-1-yl)methyl)-1-oxoisoindolin-2-yl)piperidine-2,6-dione], the IC50 is 980 nM.

Consider `O=C1CCC(N2Cc3c(CN4CCN(C(=O)C5=C(c6ccc(F)cc6)CCCC5)CC4)cccc3C2=O)C(=O)N1` (stereo not drawn) [GT-05471, 3-(4-((4-(4′-fluoro-3,4,5,6-tetrahydro-[1,1′-biphenyl]-2-carbonyl)piperazin-1-yl)methyl)-1-oxoisoindolin-2-yl)piperidine-2,6-dione], for which the IC50 came to 1080 nM. The result for `O=C1CCC(N2Cc3cc(CN4CCN(C(=O)C5=C(c6ccc(F)cc6)CCCC5)CC4)cc(F)c3C2=O)C(=O)N1` (stereo not drawn) [GT-05474, 3-(7-fluoro-5-((4-(4′-fluoro-3,4,5,6-tetrahydro-[1,1′-biphenyl]-2-carbonyl)piperazin-1-yl)methyl)-1-oxoisoindolin-2-yl)piperidine-2,6-dione] reads 1170 nM. In the case of `O=C1CCC(N2Cc3c(ccc(CN4C5CC4CN(C(=O)C4=C(c6ccc(F)cc6)CCCC4)C5)c3F)C2=O)C(=O)N1` (stereo not drawn) [GT-05475, 3-(4-fluoro-5-((3-(4′-fluoro-3,4,5,6-tetrahydro-[1,1′-biphenyl]-2-carbonyl)-3,6-diazabicyclo[3.1.1]heptan-6-yl)methyl)-1-oxoisoindolin-2-yl)piperidine-2,6-dione] it was 910 nM; in that of `O=C1CCC(N2Cc3cc(CN4C5CC4CN(C(=O)C4=C(c6ccc(F)cc6)CCCC4)C5)c(F)cc3C2=O)C(=O)N1` (stereo not drawn) [GT-05476, 3-(6-fluoro-5-((3-(4′-fluoro-3,4,5,6-tetrahydro-[1,1′-biphenyl]-2-carbonyl)-3,6-diazabicyclo[3.1.1]heptan-6-yl)methyl)-1-oxoisoindolin-2-yl)piperidine-2,6-dione], 1200 nM. In the case of `O=C1CCC(N2Cc3cc(CN4C5CC4CN(C(=O)C4=C(c6ccc(F)cc6)CCCC4)C5)cc(F)c3C2=O)C(=O)N1` (stereo not drawn) [GT-05477, 3-(7-fluoro-5-((3-(4′-fluoro-3,4,5,6-tetrahydro-[1,1′-biphenyl]-2-carbonyl)-3,6-diazabicyclo[3.1.1]heptan-6-yl)methyl)-1-oxoisoindolin-2-yl)piperidine-2,6-dione] it was 660 nM; in that of `O=C1CCC(N2Cc3c(CN4C5CC4CN(C(=O)C4=C(c6ccc(F)cc6)CCCC4)C5)cccc3C2=O)C(=O)N1` (stereo not drawn) [GT-05478, 3-(4-((3-(4′-fluoro-3,4,5,6-tetrahydro-[1,1′-biphenyl]-2-carbonyl)-3,6-diazabicyclo[3.1.1]heptan-6-yl)methyl)-1-oxoisoindolin-2-yl)piperidine-2,6-dione], 1120 nM; in that of `O=C1CCC(N2Cc3ccc(CN4C5CC4CN(C(=O)C4=C(c6ccc(F)cc6)CCCC4)C5)cc3C2=O)C(=O)N1` (stereo not drawn) [GT-05479, 3-(6-((3-(4′-fluoro-3,4,5,6-tetrahydro-[1,1′-biphenyl]-2-carbonyl)-3,6-diazabicyclo[3.1.1]heptan-6-yl)methyl)-1-oxoisoindolin-2-yl)piperidine-2,6-dione], 720 nM. `O=C1CCC(N2Cc3cccc(CN4C5CC4CN(C(=O)C4=C(c6ccc(F)cc6)CCCC4)C5)c3C2=O)C(=O)N1` (stereo not drawn) [GT-05480, 3-(7-((3-(4′-fluoro-3,4,5,6-tetrahydro-[1,1′-biphenyl]-2-carbonyl)-3,6-diazabicyclo[3.1.1]heptan-6-yl)methyl)-1-oxoisoindolin-2-yl)piperidine-2,6-dione] returned a half-maximal inhibitory concentration (IC50) of 1740 nM. `CC1(C)CCC(CN2CC(=Cc3ccc4c(c3)CN(C3CCC(=O)NC3=O)C4=O)C2)=C(c2ccc(F)cc2)C1` (stereo not drawn) [GT-05483, 3-(5-((1-((4′-fluoro-5,5-dimethyl-3,4,5,6-tetrahydro-[1,1′-biphenyl]-2-yl)methyl)azetidin-3-ylidene)methyl)-1-oxoisoindolin-2-yl)piperidine-2,6-dione] displayed an IC50 of 510 nM.

The values above are taken from patent US20260028326A1, “COMPOUND BASED ON ISOINDOLINE-SUBSTITUTED GLUTARIMIDE BACKBONE AND USE THEREOF” (GLUETACS THERAPEUTICS (SHANGHAI) CO., LTD., priority 2022, published 2026).
